Measurements as given in ChEMBL document CHEMBL3124761, “Synthesis and biological evaluation of N,N'-squaramides with high in vivo efficacy and low toxicity: toward a low-cost drug against Chagas disease” (J Med Chem, 2014).
pIC50: −log10 of the molar value. The source made the active and inactive calls. The rule behind the calls is not given here.

Assays:
Mus musculus [1] = experiment: Toxicity in BALB/c albino mouse infected with blood trypomastigote stage of Trypanosoma cruzi assessed as increase in AST/GOT level in serum at 25 mg/kg, ip administered on day 7 to 12 post-infection measured after day 120 relative to control; type: organism-based; design: dose 25 mg/kg, route intraperitoneal; conditions: in vivo
Trypanosoma cruzi [2] = experiment: Antitrypanosomal activity against trypomastigote stage of Trypanosoma cruzi IRHOD/CO/2008/SN3 assessed as reduction of trypomastigote number per mililiter of culture medium at IC25 preincubated for 12 hrs followed by compound washout measured every 48 hrs for 10 days by Neubauer hemocytometric chamber analysis relative to control; type: functional
Trypanosoma cruzi [3] = experiment: Trypanocidal activity against metacyclic trypomastigote stage of Trypanosoma cruzi infected in BALB/c albino mouse acute chagas disease model assessed as reduction of parasite burden at 25 mg/kg, ip administered on day 7 to 12 post-infection measured on day 14 by ELISA; type: functional, organism-based; design: dose 25 mg/kg
[4] = Selectivity index, ratio of IC50 for African green monkey Vero cells to IC50 for amastigote stage of Trypanosoma cruzi IRHOD/CO/2008/SN3 infected in African green monkey Vero cells; type: toxicity, cell-based; conditions: read-out: Ratio IC50
Trypanosoma cruzi [5] = experiment: Antitrypanosomal activity against epimastigote stage of Trypanosoma cruzi IRHOD/CO/2008/SN3 assessed as change in excreted pyruvate level at IC25 after 96 hrs by 1H NMR analysis relative to control; type: functional
Trypanosoma cruzi [6] = experiment: Antitrypanosomal activity against amastigote stage of Trypanosoma cruzi IRHOD/CO/2008/SN3 infected in African green monkey Vero cells assessed as parasite growth inhibition after 72 hrs by Giemsa staining-based microscopic analysis; type: functional, organism-based; conditions: IRHOD/CO/2008/SN3, Vero
Trypanosoma cruzi [7] = experiment: Antitrypanosomal activity against epimastigote stage of Trypanosoma cruzi IRHOD/CO/2008/SN3 assessed as change in excreted lactate level at IC25 after 96 hrs by 1H NMR analysis relative to control; type: functional
Trypanosoma cruzi [8] = experiment: Antitrypanosomal activity against epimastigote stage of Trypanosoma cruzi IRHOD/CO/2008/SN3 assessed as change in excreted alanine level at IC25 after 96 hrs by 1H NMR analysis relative to control; type: functional
Mus musculus [9] = experiment: Toxicity in BALB/c albino mouse assessed as mortality at 25 mg/kg, ip administered for 5 days; type: organism-based; design: dose 25 mg/kg, route intraperitoneal; conditions: in vivo, 120 h
Mus musculus [10] = experiment: Toxicity in BALB/c albino mouse infected with blood trypomastigote stage of Trypanosoma cruzi assessed as increase in total bilirubin level in serum at 25 mg/kg, ip administered on day 7 to 12 post-infection measured after day 120 relative to control; type: organism-based; design: dose 25 mg/kg, route intraperitoneal; conditions: in vivo
Trypanosoma cruzi [11] = experiment: Antitrypanosomal activity against epimastigote stage of Trypanosoma cruzi IRHOD/CO/2008/SN3 assessed as change in excreted succinate level at IC25 after 96 hrs by 1H NMR analysis relative to control; type: functional
[12] = Selectivity index, ratio of IC50 for African green monkey Vero cells to IC50 for epimastigote stage of Trypanosoma cruzi IRHOD/CO/2008/SN3; type: toxicity, cell-based; conditions: read-out: Ratio IC50
Vero = experiment: Cytotoxicity against African green monkey Vero cells assessed as cell viability after 72 hrs by propidium iodide/fluorescein diacetate staining-based flow cytometric analysis; conditions: Chlorocebus sabaeus
Mus musculus [13] = experiment: Toxicity in BALB/c albino mouse infected with blood trypomastigote stage of Trypanosoma cruzi assessed as increase in LDH level in serum at 25 mg/kg, ip administered on day 7 to 12 post-infection measured after day 120 relative to control; type: organism-based; design: dose 25 mg/kg, route intraperitoneal; conditions: in vivo
Trypanosoma cruzi [14] = experiment: Antitrypanosomal activity against amastigote stage of Trypanosoma cruzi IRHOD/CO/2008/SN3 infected in African green monkey Vero cells assessed as decrease in infection rate at IC25 preincubated for 12 hrs followed by compound washout measured every 48 hrs for 10 days by Neubauer hemocytometric chamber analysis relative to control; type: functional
Trypanosoma cruzi [15] = experiment: Antitrypanosomal activity against epimastigote stage of Trypanosoma cruzi IRHOD/CO/2008/SN3 assessed as discontinuation of parasite outer membrane at IC25 after 72 hrs by TEM analysis; type: functional, organism-based
Trypanosoma cruzi [16] = experiment: Antitrypanosomal activity against amastigote stage of Trypanosoma cruzi IRHOD/CO/2008/SN3 infected in African green monkey Vero cells assessed as reduction of amastigote number per cell at IC25 preincubated for 12 hrs followed by compound washout measured every 48 hrs for 10 days by Neubauer hemocytometric chamber analysis relative to control; type: functional
Mus musculus [17] = experiment: Toxicity in BALB/c albino mouse infected with blood trypomastigote stage of Trypanosoma cruzi assessed as change in alkaline phosphatase level in serum at 25 mg/kg, ip administered on day 7 to 12 post-infection measured after day 120 relative to control; type: organism-based; design: dose 25 mg/kg, route intraperitoneal; conditions: in vivo
Trypanosoma cruzi [18] = experiment: Antitrypanosomal activity against epimastigote stage of Trypanosoma cruzi IRHOD/CO/2008/SN3 assessed as partially scalloped parasite outer membrane at IC25 after 72 hrs by TEM analysis; type: functional, organism-based
Mus musculus [19] = experiment: Toxicity in BALB/c albino mouse infected with blood trypomastigote stage of Trypanosoma cruzi assessed as change in creatinephophokinase-MB level in serum at 25 mg/kg, ip administered on day 7 to 12 post-infection measured after day 120 relative to control; type: organism-based; design: dose 25 mg/kg, route intraperitoneal; conditions: in vivo
Mus musculus [20] = experiment: Toxicity in BALB/c albino mouse infected with blood trypomastigote stage of Trypanosoma cruzi assessed as change in ALT/GPT level in serum at 25 mg/kg, ip administered on day 7 to 12 post-infection measured after day 120 relative to control; type: organism-based; design: dose 25 mg/kg, route intraperitoneal; conditions: in vivo
Mus musculus [21] = experiment: Toxicity in BALB/c albino mouse infected with blood trypomastigote stage of Trypanosoma cruzi assessed as increase in uric acid level in serum at 25 mg/kg, ip administered on day 7 to 12 post-infection measured after day 120 relative to control; type: organism-based; design: dose 25 mg/kg, route intraperitoneal; conditions: in vivo
Trypanosoma cruzi [22] = experiment: Antitrypanosomal activity against epimastigote stage of Trypanosoma cruzi IRHOD/CO/2008/SN3 assessed as formation of electron-dense vacuoles at IC25 after 72 hrs by TEM analysis; type: functional, organism-based
Mus musculus [23] = experiment: Toxicity in BALB/c albino mouse infected with blood trypomastigote stage of Trypanosoma cruzi assessed as change in urea level in serum at 25 mg/kg, ip administered on day 7 to 12 post-infection measured after day 120 relative to control; type: organism-based; design: dose 25 mg/kg, route intraperitoneal; conditions: in vivo
Trypanosoma cruzi [24] = experiment: Antitrypanosomal activity against epimastigote stage of Trypanosoma cruzi IRHOD/CO/2008/SN3 assessed as parasite growth inhibition after 72 hrs by Neubauer hemocytometric chamber analysis; type: functional, organism-based; conditions: IRHOD/CO/2008/SN3, 72 h
Trypanosoma cruzi [25] = experiment: Antitrypanosomal activity against epimastigote stage of Trypanosoma cruzi IRHOD/CO/2008/SN3 assessed as disappearance of microtubular structure at IC25 after 72 hrs by TEM analysis; type: functional, organism-based
Trypanosoma cruzi [26] = experiment: Antitrypanosomal activity against epimastigote stage of Trypanosoma cruzi IRHOD/CO/2008/SN3 assessed as change in excreted acetate level at IC25 after 96 hrs by 1H NMR analysis relative to control; type: functional
Trypanosoma cruzi [27] = experiment: Trypanocidal activity against metacyclic trypomastigote stage of Trypanosoma cruzi infected in BALB/c albino mouse acute chagas disease model assessed as inhibition of parasitemia at 25 mg/kg, ip administered on day 7 to 12 post-infection measured every 2 days until day 40 […] relative to control; type: functional; conditions: route intraperitoneal
Trypanosoma cruzi [28] = experiment: Antitrypanosomal activity against epimastigote stage of Trypanosoma cruzi IRHOD/CO/2008/SN3 assessed as mitochondrial swelling with rupture of membrane at IC25 after 72 hrs by TEM analysis; type: functional, organism-based
Trypanosoma cruzi [29] = experiment: Antitrypanosomal activity against epimastigote stage of Trypanosoma cruzi IRHOD/CO/2008/SN3 assessed as mortality at IC25 after 72 hrs by TEM analysis; type: functional, organism-based
Mus musculus [30] = experiment: Toxicity in BALB/c albino mouse infected with blood trypomastigote stage of Trypanosoma cruzi assessed as change in total bilirubin level in serum at 25 mg/kg, ip administered on day 7 to 12 post-infection measured after day 120 relative to control; type: organism-based; design: dose 25 mg/kg, route intraperitoneal; conditions: in vivo
Trypanosoma cruzi [31] = experiment: Antitrypanosomal activity against epimastigote stage of Trypanosoma cruzi IRHOD/CO/2008/SN3 assessed as appearance of swollen structure filled with empty vacuoles at IC25 after 72 hrs by TEM analysis; type: functional, organism-based
Mus musculus [32] = experiment: Toxicity in BALB/c albino mouse infected with blood trypomastigote stage of Trypanosoma cruzi assessed as increase in creatinephophokinase-MB level in serum at 25 mg/kg, ip administered on day 7 to 12 post-infection measured after day 120 relative to control; type: organism-based; design: dose 25 mg/kg, route intraperitoneal; conditions: in vivo
Mus musculus [33] = experiment: Toxicity in BALB/c albino mouse infected with blood trypomastigote stage of Trypanosoma cruzi assessed as change in LDH level in serum at 25 mg/kg, ip administered on day 7 to 12 post-infection measured after day 120 relative to control; type: organism-based; design: dose 25 mg/kg, route intraperitoneal; conditions: in vivo
Trypanosoma cruzi [34] = experiment: Antitrypanosomal activity against epimastigote stage of Trypanosoma cruzi IRHOD/CO/2008/SN3 assessed as appearance of enormous reservosomes at IC25 after 72 hrs by TEM analysis; type: functional, organism-based
Mus musculus [35] = experiment: Toxicity in BALB/c albino mouse infected with blood trypomastigote stage of Trypanosoma cruzi assessed as change in uric acid level in serum at 25 mg/kg, ip administered on day 7 to 12 post-infection measured after day 120 relative to control; type: organism-based; design: dose 25 mg/kg, route intraperitoneal; conditions: in vivo
Mus musculus [36] = experiment: Toxicity in BALB/c albino mouse infected with blood trypomastigote stage of Trypanosoma cruzi assessed as decrease in ALT/GPT level in serum at 25 mg/kg, ip administered on day 7 to 12 post-infection measured after day 120 relative to control; type: organism-based; design: dose 25 mg/kg, route intraperitoneal; scale not given: the % may be the effect or the level left; conditions: in vivo
Mus musculus [37] = experiment: Toxicity in BALB/c albino mouse infected with blood trypomastigote stage of Trypanosoma cruzi assessed as decrease in creatinephophokinase-MB level in serum at 25 mg/kg, ip administered on day 7 to 12 post-infection measured after day 120 relative to control; type: organism-based; design: dose 25 mg/kg, route intraperitoneal; scale not given: the % may be the effect or the level left; conditions: in vivo

SMILES	Activity (Mus musculus [1])	inhibition (INH) (Trypanosoma cruzi [2])	Activity (Trypanosoma cruzi [3])	selectivity ratio [4]	Activity (Trypanosoma cruzi [5])	pIC50 (Trypanosoma cruzi [6])	Activity (Trypanosoma cruzi [7])	Activity (Trypanosoma cruzi [8])	Activity (Mus musculus [9])	Activity (Mus musculus [10])	Activity (Trypanosoma cruzi [11])	selectivity ratio [12]	pIC50 (Vero)	inhibition (INH) (Trypanosoma cruzi [14])	inhibition (INH) (Trypanosoma cruzi [16])	Activity (Mus musculus [17])	Activity (Mus musculus [23])	pIC50 (Trypanosoma cruzi [24])	Activity (Trypanosoma cruzi [26])	inhibition in vivo at 25 mg/kg (Trypanosoma cruzi [27])	also measured
CCCCNc1c(NCCN(C)C)c(=O)c1=O	40%	18%	Active	28	-11.1%	5.03	-23.9%	-11.1%	Non-toxic	40%	-28.3%	24.8	3.58	35%	35%	< 10%	< 10%	4.98	-18.6%	31%	Activity (Mus musculus [13]): 40%; Activity (Trypanosoma cruzi [15]): Active; Activity (Trypanosoma cruzi [18]): Active; Activity (Mus musculus [19]): < 10%; Activity (Mus musculus [20]): < 10%; Activity (Mus musculus [21]): 30%; Activity (Trypanosoma cruzi [22]): Active; Activity (Trypanosoma cruzi [25]): Active; Activity (Trypanosoma cruzi [28]): Active
CN(CCCNc1c(NCCC[N+](C)(C)C)c(=O)c1=O)CCCNc1c(NCCC[N+](C)(C)C)c(=O)c1=O.[I-].[I-]	40%	49%	Active	17.5	37.4%	4.77	-20.6%	-13.3%	Non-toxic		-21.2%	16.2	3.52	30%	30%	< 10%	< 10%	4.73	-12%	37%	Activity (Trypanosoma cruzi [29]): Active; Activity (Mus musculus [30]): < 10%; Activity (Trypanosoma cruzi [31]): Active; Activity (Mus musculus [32]): 30%; Activity (Mus musculus [20]): < 10%; Activity (Mus musculus [33]): < 10%; Activity (Mus musculus [21]): 30%; Activity (Trypanosoma cruzi [22]): Active; Activity (Trypanosoma cruzi [34]): Active
CCCCNc1c(NCCCN(CCCC)CCCC)c(=O)c1=O	40%	38%	Active	24.6	-12%	5.22	-22.3%	-7.9%	Non-toxic	30%	-21.6%	13.3	3.83	61%	45%	< 10%	< 10%	4.68	8.5%	21%	Activity (Mus musculus [35]): < 10%; Activity (Mus musculus [33]): < 10%; Activity (Mus musculus [36]): 10%; Activity (Mus musculus [37]): 30%
